The source of these data is patent US20090158447A1, “TLR ligand and IL-1 Response-Injured Animal Model” (priority 2004, published 2009).

In experiment [1] the test system is peritoneal macrophages or lung-derived normal cells. In words: Northern blot analysis of IκB-ζ, Bcl-3 and IκB-α expression on TLR/IL-1R stimulation. Format: cell-based, mouse. The settings on record: stimulation for 2 hours, FIG. 1a. On the procedure:
Peritoneal macrophages and lung primary cells were stimulated with 100 ng ml^−1 BLP, 10 μg ml^−1 PGN, 30 ng ml^−1 MALP-2, 100 nM R-848, 3 μM CpG DNA, 10 ng ml^−1 IL-1β, 10 μg ml^−1 LPS, 100 ng ml^−1 flagellin, and 10 ng ml^−1 TNF-α for 2 hours. Total RNA (10 μg) was extracted and subjected to Northern blot analysis for investigating the expression of IκB-ζ, Bcl-3, IκB-α, and β-actin. b. MEFs from wild-type and MyD88-deficient mice were stimulated with 10 ng ml^−1 IL-1β and 10 μg ml^−1 LPS for the indicated periods. Total RNA (10 μg) was extracted and subjected to Northern blot analysis for investigating the expression of IκB-ζ, Cox-2, IP-10, and β-actin.
Whether IκB-ζ would be induced in response to other TLR ligands was examined based on the fact that stimulation with IL-1 or LPS induces IκB-ζ in macrophage cell lines and fibroblasts, and that IL-1R and the receptor for LPS, TLR4, share the intracellular signaling pathways. […] On the other hand, other IκB family members, IκB-α and Bcl-3, were induced in response to TNF-αas well as a TLR ligand and IL-1. Taken together, unlike IκB-α and Bcl-3, the IκB-ζ induction is specifically detected on the TLR/IL-1R stimulation.

For experiment [2], the target named is T1, IκB-ζ (mouse, UniProt Q9EST8 1-728, limits assumed).
T1 construct: also called MAIL; INAP
T1 sequence (looked up): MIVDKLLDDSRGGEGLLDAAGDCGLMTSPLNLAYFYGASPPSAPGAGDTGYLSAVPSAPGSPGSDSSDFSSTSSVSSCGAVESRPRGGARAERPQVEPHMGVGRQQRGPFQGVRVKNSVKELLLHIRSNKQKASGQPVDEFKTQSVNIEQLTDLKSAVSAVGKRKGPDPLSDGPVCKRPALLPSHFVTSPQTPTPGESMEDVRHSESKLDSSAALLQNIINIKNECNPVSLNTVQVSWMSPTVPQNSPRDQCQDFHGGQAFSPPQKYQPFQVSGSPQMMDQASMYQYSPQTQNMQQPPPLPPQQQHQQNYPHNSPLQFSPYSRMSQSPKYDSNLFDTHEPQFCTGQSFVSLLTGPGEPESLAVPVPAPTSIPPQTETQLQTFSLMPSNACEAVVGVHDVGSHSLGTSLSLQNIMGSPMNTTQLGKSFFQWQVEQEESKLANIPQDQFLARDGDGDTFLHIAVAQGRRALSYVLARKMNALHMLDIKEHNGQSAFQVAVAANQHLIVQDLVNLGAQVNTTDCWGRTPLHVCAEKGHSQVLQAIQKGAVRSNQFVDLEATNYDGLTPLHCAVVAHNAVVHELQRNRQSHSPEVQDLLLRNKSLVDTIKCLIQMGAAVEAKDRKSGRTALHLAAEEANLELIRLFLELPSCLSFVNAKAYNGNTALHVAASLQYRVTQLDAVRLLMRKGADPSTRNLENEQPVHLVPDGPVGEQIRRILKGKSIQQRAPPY
The experiment can be described thus: co-immunoprecipitation from peritoneal macrophage lysates, immunoblot with α-IκB-ζ. The text has this:
RAW 264.7 cells were transiently transfected with luciferase reporter constructs of either mouse IL-6 promoter or ELAM1 promoter together with either a control or the IκB-ζ expression plasmid. Luciferase activities were expressed as fold-increase over the background shown by lysates prepared from untransfected cells. Data are representative of three separate experiments. In all three experiments, cells were stimulated with the indicated concentrations of LPS. b. A certain amount of IκB-ζ expression vector was transiently introduced into untreated RAW 264.7 cells with the indicated amount of IL-6 reporter plasmid. Data are representative of three independent experiments. c. Reporter constructs of either a wild-type or mutant IL-6 promoter were transiently introduced into P19 embryonic canrinoma cells together with either a control or an IκB-ζ expression plasmid. Luciferase activities were normalized in each case of reporter constructs by dividing the increase rate of IκB-ζ-expressed cells over the background shown by lysates by that of mock-expressed cells. d. Chromatin from untreated (−) or LPS-treated (+) (1 μg ml⁻¹ for 3 hours) RAW 264.7 cells were used for ChIp with the indicated antibodies. Precipitated DNA for the IL-6 κB site (left), 3′ region of IL-6 gene (center), or ELAM1 promoter (right) was measured by PCR (ChIP). Data are representative of two independent experiments. e. Unstimulated or LPS-stimulated (10 ng ml⁻¹) peritoneal macrophages were immunoprecepitated with the indicated antibodies. The immunoprecipitated lysates were subsequently immunoblotted with α-IκB-ζ.
Peritoneal macrophages and MEFs were stimulated with the indicated ligands for the indicated periods. The cells were then lysed in a lysis buffer containing 1.0% Nonidet-P40, 150 mM NaCl, 20 mM Tris-Cl (pH 7.5), 5 mM EDTA and protein inhibitor (Roche). The cell lysates were dissolved by SDS-PAGE and transferred on a PVDF membrances. For immunoprecipitation, cell lysates were precleared with Protein G-Sepharose™ (Amersham Pharmacia Biotech) for 2 h and then incubated with Protein G-Sepharose™ containing 1.0 μg of the indicated antibodies for 12 h with stirring at 4° C. The immunoprecipitants were washed four times with lysis buffer, eluted by boiling with Laemnli sample buffer, and subjected to Western blotting using α-IκB-ζ, as described above.
(In general: In western blotting, separated proteins are transferred to a membrane and probed.)

Consider `CCOCc1nc2c(N)nc3ccccc3c2n1CC(C)(C)O` [R848], for which the “IκB-ζ mRNA induction” value in experiment [1] is listed as “strongly induced”. “IL-1: Interleukin-1; recombinant IL-1β obtained from Genzyme”: in experiment [1], the Bcl-3 induction entry is reported as “induced”, the IκB-α induction entry was “induced” and the “IκB-ζ mRNA induction” value is listed as “strongly induced”.

Turning to MALP-2, the “IκB-ζ mRNA induction” value in experiment [1] was “strongly induced”. TNF-α: in experiment [1], the Bcl-3 induction entry is reported as “induced”, the IκB-α induction entry is “induced” and the “IκB-ζ mRNA induction” value is “no induction was observed”. In the case of flagellin, in experiment [1], the “IκB-ζ mRNA induction” value is recorded as “strongly induced”. On to peptidoglycan [PGN], for which, in experiment [1], the “IκB-ζ mRNA induction” value is given as “strongly induced”.

B1: RelB (other, mouse, UniProt Q04863 1-558, looked up)
chain: MPSRRAARESAPELGALGSSDLSSLSLTVSRTTDELEIIDEYIKENGFGLDGTQLSEMPRLVPRGPASLSSVTLGPAAPPPPATPSWSCTLGRLVSPGPCPRPYLVITEQPKQRGMRFRYECEGRSAGSILGESSTEASKTLPAIELRDCGGLREVEVTACLVWKDWPHRVHPHSLVGKDCTDGVCRVRLRPHVSPRHSFNNLGIQCVRKKEIEAAIERKIQLGIDPYNAGSLKNHQEVDMNVVRICFQASYRDQQGHLHRMDPILSEPVYDKKSTNTSELRICRINKESGPCTGGEELYLLCDKVQKEDISVVFSTASWEGRADFSQADVHRQIAIVFKTPPYEDLEISEPVTVNVFLQRLTDGVCSEPLPFTYLPRDHDSYGVDKKRKRGLPDVLGELSSSDPHGIESKRRKKKPVFLDHFLPGHSSGLFLPPSALQPADSDFFPASISLPGLEPPGGPDLLDDGFAYDPSAPTLFTMLDLLPPAPPLASAVVGSGGAGATVVESSGPEPLSLDSFAAPGPGDVGTASLVGSNMFPNQYREAAFGGGLLSPGPEAT
Take B1: in experiment [2], the binding result is listed as “no binding”.

B2: p52 subunit (other, mouse, UniProt Q9WTK5 1-454, looked up)
chain: MDNCYDPGLDGIPEYDDFEFSPSIVEPKDPAPETADGPYLVIVEQPKQRGFRFRYGCEGPSHGGLPGASSEKGRKTYPTVKICNYEGPAKIEVDLVTHSDPPRAHAHSLVGKQCSELGVCAVSVGPKDMTAQFNNLGVLHVTKKNMMEIMIQKLQRQRLRSKPQGLTEAERRELEQEAKELKKVMDLSIVRLRFSAFLRASDGSFSLPLKPVISQPIHDSKSPGASNLKISRMDKTAGSVRGGDEVYLLCDKVQKDDIEVRFYEDDENGWQAFGDFSPTDVHKQYAIVFRTPPYHKMKIERPVTVFLQLKRKRGGDVSDSKQFTYYPLVEDKEEVQRKRRKALPTFSQPFGGGSHMGGGSGGSAGGYGGAGGGGSLGFFSSSLAYNPYQSGAAPMGCYPGGGGGAQMAGSRRDTDAGEGAEEPRTPPEAPQGEPQALDTLQRAREYNARLFGLA
Regarding B2, the binding result in experiment [2] is listed as “no binding”.

B3: RelA (other, mouse, UniProt Q04207 1-549, looked up)
chain: MDDLFPLIFPSEPAQASGPYVEIIEQPKQRGMRFRYKCEGRSAGSIPGERSTDTTKTHPTIKINGYTGPGTVRISLVTKDPPHRPHPHELVGKDCRDGYYEADLCPDRSIHSFQNLGIQCVKKRDLEQAISQRIQTNNNPFHVPIEEQRGDYDLNAVRLCFQVTVRDPAGRPLLLTPVLSHPIFDNRAPNTAELKICRVNRNSGSCLGGDEIFLLCDKVQKEDIEVYFTGPGWEARGSFSQADVHRQVAIVFRTPPYADPSLQAPVRVSMQLRRPSDRELSEPMEFQYLPDTDDRHRIEEKRKRTYETFKSIMKKSPFNGPTEPRPPTRRIAVPTRNSTSVPKPAPQPYTFPASLSTINFDEFSPMLLPSGQISNQALALAPSSAPVLAQTMVPSSAMVPLAQPPAPAPVLTPGPPQSLSAPVPKSTQAGEGTLSEALLHLQFDADEDLGALLGNSTDPGVFTDLASVDNSEFQQLLNQGVSMSHSTAEPMLMEYPEAITRLVTGSQRPPDPAPTPLGTSGLPNGLSGDEDFSSIADMDFSALLSQISS
notes: Immunoprecipitated with anti-RelA (Santa Cruz); also called NF-κB RelA
Turning to B3, in experiment [2], the binding result is reported as “no binding”.

B4: c-Rel (other, mouse, UniProt P15307 2-587, looked up)
chain: ASSGYNPYVEIIEQPRQRGMRFRYKCEGRSAGSIPGERSTDNNRTYPSVQIMNYYGKGKIRITLVTKNDPYKPHPHDLVGKDCRDGYYEAEFGPERRPLFFQNLGIRCVKKKEVKGAIILRISAGINPFNVGEQQLLDIEDCDLNVVRCVFMFFLPDEDGNFTTALPPIVSNPIYDNRAPNTAELRICRVNKNCGSVRGGDEIFLLCDKVQKDDIEVRFVLNDWEARGVFSQADVHRQVAIVFKTPPYCKAILEPVTVKMQLRRPSDQEVSESMDFRYLPDEKDAYGNKSKKQKTTLIFQKLLQDCGHFTEKPRTAPLGSTGEGRFIKKESNLFSHGTVLPEMPRSSGVPGQAEPYYSSCGSISSGLPHHPPAIPSVAHQPTSWPPVTHPTSHPVSTNTLSTFSAGTLSSNSQGILPFLEGPGVSDLSASNSCLYNPDDLARMETPSMSPTDLYSISDVNMLSTRPLSVMAPSTDGMGDTDNPRLVSINLENPSCNARLGPRDLRQLHQMSPASLSAGTSSSSVFVSQSDAFDRSNFSCVDNGLMNEPGLSDDANNPTFVQSSHYSVNTLQSEQLSDPFTYGFFKI
notes: Immunoprecipitated with anti-c-Rel (Santa Cruz)
With B4, the binding result in experiment [2] was “no binding”.
